# Measurements reported in the supplement of paper PMC10307832.
# What was measured:
# Assay in all cases: relative viability (nuclei count vs DMSO), 5 days (fraction); higher = more cells survive
# A549 = system: A549
# Procedure, shortened: (§1)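 Each reported value is a median over duplicate plates. It expresses relative viability: treated-well nuclei count divided by vehicle-well nuclei count. Lung cancer cell lines in 1536-well plates were dosed by pin tool a day after seeding, alone with one drug or with a fixed anchor-drug dose plus five library-drug doses (not always all listed) in √10 steps, and nuclei were counted after 5 days.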
# Calu-6 = system: Calu-6
# Procedure, shortened: as §1
# EBC-1 = system: EBC-1
# Procedure, shortened: as §1
# HCC-366 = system: HCC-366
# Procedure, shortened: as §1
# HCC-44 = system: HCC-44
# Procedure, shortened: as §1
# IA-LM = system: IA-LM
# Procedure, shortened: as §1
# NCI-H1299 = system: NCI-H1299
# Procedure, shortened: as §1
# NCI-H1437 = system: NCI-H1437
# Procedure, shortened: as §1
# NCI-H1703 = system: NCI-H1703
# Procedure, shortened: as §1
smiles,measurement,setting,value
O=C(O)c1ccc(-c2c[nH]c3ncc(-c4ccccc4)cc23)cc1C1CCCC1 + CC1(C)CCC(c2ccc(Cl)cc2)=C(CN2CCN(c3ccc(C(=O)NS(=O)(=O)c4ccc(N[C@H](CCN5CCOCC5)CSc5ccccc5)c(S(=O)(=O)C(F)(F)F)c4)cc3)CC2)C1 [Navitoclax] (partner 0.5 µM),relative viability,A549; first compound 0.04 µM,1.09
same,relative viability,A549; first compound 0.1265 µM,1.24
same,relative viability,A549; first compound 0.4 µM,1.17
same,relative viability,A549; first compound 1.265 µM,0.939
same,relative viability,Calu-6; first compound 0.04 µM,0.821
same,relative viability,Calu-6; first compound 0.1265 µM,0.732
same,relative viability,Calu-6; first compound 0.4 µM,0.719
same,relative viability,Calu-6; first compound 1.265 µM,0.55
same,relative viability,EBC-1; first compound 0.04 µM,0.475
same,relative viability,EBC-1; first compound 0.1265 µM,0.404
same,relative viability,EBC-1; first compound 0.4 µM,0.352
same,relative viability,EBC-1; first compound 1.265 µM,0.279
same,relative viability,HCC-366; first compound 0.04 µM,0.993
same,relative viability,HCC-366; first compound 0.1265 µM,1.2
same,relative viability,HCC-366; first compound 0.4 µM,0.964
same,relative viability,HCC-366; first compound 1.265 µM,1.14
same,relative viability,HCC-44; first compound 0.04 µM,1.06
same,relative viability,HCC-44; first compound 0.1265 µM,1.01
same,relative viability,HCC-44; first compound 0.4 µM,0.944
same,relative viability,HCC-44; first compound 1.265 µM,0.914
same,relative viability,IA-LM; first compound 0.04 µM,0.925
same,relative viability,IA-LM; first compound 0.1265 µM,0.829
same,relative viability,IA-LM; first compound 0.4 µM,0.89
same,relative viability,IA-LM; first compound 1.265 µM,0.576
same,relative viability,NCI-H1299; first compound 0.04 µM,1.07
same,relative viability,NCI-H1299; first compound 0.1265 µM,1.08
same,relative viability,NCI-H1299; first compound 0.4 µM,1.02
same,relative viability,NCI-H1299; first compound 1.265 µM,0.942
same,relative viability,NCI-H1437; first compound 0.04 µM,1.03
same,relative viability,NCI-H1437; first compound 0.1265 µM,1.22
same,relative viability,NCI-H1437; first compound 0.4 µM,0.955
same,relative viability,NCI-H1437; first compound 1.265 µM,0.407
same,relative viability,NCI-H1703; first compound 0.1265 µM,1.11
same,relative viability,NCI-H1703; first compound 0.4 µM,1.03
same,relative viability,NCI-H1703; first compound 1.265 µM,1.11
O=C(O)c1ccc(-c2c[nH]c3ncc(-c4ccccc4)cc23)cc1C1CCCC1 + CC(C)C[C@H](NC(=O)[C@H](Cc1ccccc1)NC(=O)c1cnccn1)B(O)O [Bortezomib] (partner 0.002 µM),relative viability,Calu-6; first compound 0.04 µM,0.912
same,relative viability,Calu-6; first compound 0.1265 µM,1
same,relative viability,Calu-6; first compound 0.4 µM,0.907
same,relative viability,Calu-6; first compound 1.265 µM,0.661
same,relative viability,EBC-1; first compound 0.04 µM,0.567
same,relative viability,EBC-1; first compound 0.1265 µM,0.583
same,relative viability,EBC-1; first compound 0.4 µM,0.452
same,relative viability,EBC-1; first compound 1.265 µM,0.308
same,relative viability,HCC-366; first compound 0.04 µM,1.05
same,relative viability,HCC-366; first compound 0.1265 µM,1.12
same,relative viability,HCC-366; first compound 0.4 µM,1.03
same,relative viability,HCC-366; first compound 1.265 µM,1.06
same,relative viability,HCC-44; first compound 0.04 µM,0.945
same,relative viability,HCC-44; first compound 0.1265 µM,0.866
same,relative viability,HCC-44; first compound 0.4 µM,0.886
same,relative viability,HCC-44; first compound 1.265 µM,0.908
same,relative viability,IA-LM; first compound 0.04 µM,0.915
same,relative viability,IA-LM; first compound 0.1265 µM,0.868
same,relative viability,IA-LM; first compound 0.4 µM,0.761
same,relative viability,IA-LM; first compound 1.265 µM,0.658
same,relative viability,NCI-H1299; first compound 0.04 µM,1.05
same,relative viability,NCI-H1299; first compound 0.1265 µM,1.03
same,relative viability,NCI-H1299; first compound 0.4 µM,0.986
same,relative viability,NCI-H1299; first compound 1.265 µM,0.893
same,relative viability,NCI-H1437; first compound 0.04 µM,0.523
same,relative viability,NCI-H1437; first compound 0.1265 µM,0.683
same,relative viability,NCI-H1437; first compound 0.4 µM,0.446
same,relative viability,NCI-H1437; first compound 1.265 µM,0.238
same,relative viability,NCI-H1703; first compound 0.1265 µM,0.235
same,relative viability,NCI-H1703; first compound 0.4 µM,0.3
same,relative viability,NCI-H1703; first compound 1.265 µM,0.433
O=C(O)c1ccc(-c2c[nH]c3ncc(-c4ccccc4)cc23)cc1C1CCCC1 + CS(=O)(=O)CCNCc1ccc(-c2ccc3ncnc(Nc4ccc(OCc5cccc(F)c5)c(Cl)c4)c3c2)o1 [Lapatinib] (partner 2 µM),relative viability,A549; first compound 0.04 µM,1.01
same,relative viability,A549; first compound 0.1265 µM,0.985
same,relative viability,A549; first compound 0.4 µM,0.899
same,relative viability,A549; first compound 1.265 µM,0.837
same,relative viability,Calu-6; first compound 0.04 µM,1.02
same,relative viability,Calu-6; first compound 0.1265 µM,1.09
same,relative viability,Calu-6; first compound 0.4 µM,0.984
same,relative viability,Calu-6; first compound 1.265 µM,0.78
same,relative viability,EBC-1; first compound 0.04 µM,0.224
same,relative viability,EBC-1; first compound 0.1265 µM,0.215
same,relative viability,EBC-1; first compound 0.4 µM,0.227
same,relative viability,EBC-1; first compound 1.265 µM,0.242
same,relative viability,HCC-366; first compound 0.04 µM,1.01
same,relative viability,HCC-366; first compound 0.1265 µM,0.869
same,relative viability,HCC-366; first compound 0.4 µM,0.953
same,relative viability,HCC-366; first compound 1.265 µM,0.981
same,relative viability,HCC-44; first compound 0.04 µM,0.959
same,relative viability,HCC-44; first compound 0.1265 µM,1.02
same,relative viability,HCC-44; first compound 0.4 µM,1.1
same,relative viability,HCC-44; first compound 1.265 µM,0.913
same,relative viability,IA-LM; first compound 0.04 µM,0.913
same,relative viability,IA-LM; first compound 0.1265 µM,1.03
same,relative viability,IA-LM; first compound 0.4 µM,0.974
same,relative viability,IA-LM; first compound 1.265 µM,0.782
same,relative viability,NCI-H1299; first compound 0.04 µM,0.945
same,relative viability,NCI-H1299; first compound 0.1265 µM,1
same,relative viability,NCI-H1299; first compound 0.4 µM,0.938
same,relative viability,NCI-H1299; first compound 1.265 µM,0.829
same,relative viability,NCI-H1437; first compound 0.04 µM,0.794
same,relative viability,NCI-H1437; first compound 0.1265 µM,0.823
same,relative viability,NCI-H1437; first compound 0.4 µM,0.765
same,relative viability,NCI-H1437; first compound 1.265 µM,0.338
same,relative viability,NCI-H1703; first compound 0.04 µM,1.11
same,relative viability,NCI-H1703; first compound 0.1265 µM,1.44
same,relative viability,NCI-H1703; first compound 0.4 µM,1.06
same,relative viability,NCI-H1703; first compound 1.265 µM,0.929
